Test results taken from patent US20180099931A1 (AbbVie S.à.r.l., priority 2016, published 2018).
Where two headings read alike, the source gives them in different places.

Target: T1, F508delCFTR (Homo sapiens, UniProt P13569, DEL508-508)
T1 construct: expressed in transfected cells; host or cells: CFBE41o- human lung-derived epithelial cells (CFBE4lo-F508delCFTR-HRP), doxycycline-inducible
Experiment: Cell Surface Expression-Horse Radish Peroxidase (CSE-HRP) Assay;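 on Maximum % activity (with co-corrector): co-corrector and positive control are both the same reference corrector at 2 µM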;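 on Maximum % activity (without co-corrector): percent of the 2 µM on-plate positive control corrector response above DMSO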
Assay type: cell-based
Settings: for Maximum % activity (with co-corrector) / Emax: maximum at any tested concentration, normalized to on-plate positive control; for Emax: read-out: Maximum % activity (without co-corrector)
Procedure: Cell Surface Expression-Horse Radish Peroxidase (CSE-HRP) Assay;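 on Maximum % activity (with co-corrector): co-corrector and positive control are both the same reference corrector at 2 µM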;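 on Maximum % activity (without co-corrector): percent of the 2 µM on-plate positive control corrector response above DMSO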
The development was achieved by expressing the F508delCFTR mutation along with a horseradish peroxidase (HRP) in the fourth exofacial loop, and then measuring the HRP activity using luminescence readout from these cells, CFBE4lo-F508delCFTR-HRP, that were incubated overnight with the test corrector compounds, either without or with the co-corrector. […] The test compounds were then added either without or with a co-corrector at the required concentrations and further incubated for 18-24 hours at 33° C. The highest concentration tested was 20 μM with an 8-point concentration response curve using a 3-fold dilution in both the test compound without or with the co-corrector. Three replicate plates were run to determine one EC50. All plates contained negative controls (dimethyl sulfoxide, DMSO) and positive control (2 μM of 3-[(2R,4R)-4-({[1-(2,2-difluoro-1,3-benzodioxol-5-yl)cyclopropyl]carbonyl}amino)-7-methoxy-3,4-dihydro-2H-chromen-2-yl]benzoic acid) as well as on-plate concentration response of the positive control. […] The raw counts from the experiment were analyzed using Accelrys® Assay Explorer v3.3.
1−[3*SDPositive Control+3*SDNegative Control/Absolute(MeanPositive Control−MeanNegative Control)]
wherein “SD” is standard deviation.
The % activity measured at each of the 8 test concentrations of the test compound added either without or with a co-corrector (2 μM of 3-[(2R,4R)-4-({[1-(2,2-difluoro-1,3-benzodioxol-5-yl)cyclopropyl]carbonyl}amino)-7-methoxy-3,4-dihydro-2H-chromen-2-yl]benzoic acid) was normalized to the on-plate positive control using the following formulae:
% activity(Test compound without co-corrector)=[(test compound without co-corrector response−DMSO response)/(positive control response−DMSO response)]*100
% activity(Test compound with co-corrector)=[(test compound with co-corrector response−DMSO response)/(positive control response−DMSO response)]*100
The maximum % activity achieved for the test compound either without or with a co-corrector at any tested concentration is presented in Table 4 along with the respective EC50's calculated using the following general sigmoidal curve with variable Hill slope equation (described as Model 42 in the Accelrys® Assay Explorer v3.3 software):
General sigmoidal curve with concentration, response, top, bottom, EC50 and Hill slope. This model describes a sigmoidal curve with an adjustable baseline, a. The equation can be used to fit curves where response is either increasing or decreasing with respect to the independent variable, “x”.
“x” is a concentration of drug under test. “y” is the response. “a” is the maximum response, and “d” is the minimum response “c” is the inflection point (EC50) for the curve. That is, “y” is halfway between the lower and upper asymptotes when x=c. “b” is the slope-factor or Hill coefficient. The sign of b is positive when the response increases with increasing dose and is negative when the response decreases with increasing dose (inhibition).

[1] = CSE-HRP, test compound without co-corrector, read-out: EC50 (without co-corrector)
[2] = CSE-HRP, with co-corrector (2 μM of 3-[(2R,4R)-4-({[1-(2,2-difluoro-1,3-benzodioxol-5-yl)cyclopropyl]carbonyl}amino)-7-methoxy-3,4-dihydro-2H-chromen-2-yl]benzoic acid), read-out: EC50 (with co-corrector)
[3] = CSE-HRP, with co-corrector (2 μM)
[4] = test compound without co-corrector
[5] = test compound without co-corrector, read-out: EC50 (without co-corrector)
[6] = with co-corrector (2 μM of 3-[(2R,4R)-4-({[1-(2,2-difluoro-1,3-benzodioxol-5-yl)cyclopropyl]carbonyl}amino)-7-methoxy-3,4-dihydro-2H-chromen-2-yl]benzoic acid)
[7] = with co-corrector (2 μM of 3-[(2R,4R)-4-({[1-(2,2-difluoro-1,3-benzodioxol-5-yl)cyclopropyl]carbonyl}amino)-7-methoxy-3,4-dihydro-2H-chromen-2-yl]benzoic acid), read-out: EC50 (with co-corrector)

T1 sequence (P13569 with tags, fused parts or gaps DEL508-508): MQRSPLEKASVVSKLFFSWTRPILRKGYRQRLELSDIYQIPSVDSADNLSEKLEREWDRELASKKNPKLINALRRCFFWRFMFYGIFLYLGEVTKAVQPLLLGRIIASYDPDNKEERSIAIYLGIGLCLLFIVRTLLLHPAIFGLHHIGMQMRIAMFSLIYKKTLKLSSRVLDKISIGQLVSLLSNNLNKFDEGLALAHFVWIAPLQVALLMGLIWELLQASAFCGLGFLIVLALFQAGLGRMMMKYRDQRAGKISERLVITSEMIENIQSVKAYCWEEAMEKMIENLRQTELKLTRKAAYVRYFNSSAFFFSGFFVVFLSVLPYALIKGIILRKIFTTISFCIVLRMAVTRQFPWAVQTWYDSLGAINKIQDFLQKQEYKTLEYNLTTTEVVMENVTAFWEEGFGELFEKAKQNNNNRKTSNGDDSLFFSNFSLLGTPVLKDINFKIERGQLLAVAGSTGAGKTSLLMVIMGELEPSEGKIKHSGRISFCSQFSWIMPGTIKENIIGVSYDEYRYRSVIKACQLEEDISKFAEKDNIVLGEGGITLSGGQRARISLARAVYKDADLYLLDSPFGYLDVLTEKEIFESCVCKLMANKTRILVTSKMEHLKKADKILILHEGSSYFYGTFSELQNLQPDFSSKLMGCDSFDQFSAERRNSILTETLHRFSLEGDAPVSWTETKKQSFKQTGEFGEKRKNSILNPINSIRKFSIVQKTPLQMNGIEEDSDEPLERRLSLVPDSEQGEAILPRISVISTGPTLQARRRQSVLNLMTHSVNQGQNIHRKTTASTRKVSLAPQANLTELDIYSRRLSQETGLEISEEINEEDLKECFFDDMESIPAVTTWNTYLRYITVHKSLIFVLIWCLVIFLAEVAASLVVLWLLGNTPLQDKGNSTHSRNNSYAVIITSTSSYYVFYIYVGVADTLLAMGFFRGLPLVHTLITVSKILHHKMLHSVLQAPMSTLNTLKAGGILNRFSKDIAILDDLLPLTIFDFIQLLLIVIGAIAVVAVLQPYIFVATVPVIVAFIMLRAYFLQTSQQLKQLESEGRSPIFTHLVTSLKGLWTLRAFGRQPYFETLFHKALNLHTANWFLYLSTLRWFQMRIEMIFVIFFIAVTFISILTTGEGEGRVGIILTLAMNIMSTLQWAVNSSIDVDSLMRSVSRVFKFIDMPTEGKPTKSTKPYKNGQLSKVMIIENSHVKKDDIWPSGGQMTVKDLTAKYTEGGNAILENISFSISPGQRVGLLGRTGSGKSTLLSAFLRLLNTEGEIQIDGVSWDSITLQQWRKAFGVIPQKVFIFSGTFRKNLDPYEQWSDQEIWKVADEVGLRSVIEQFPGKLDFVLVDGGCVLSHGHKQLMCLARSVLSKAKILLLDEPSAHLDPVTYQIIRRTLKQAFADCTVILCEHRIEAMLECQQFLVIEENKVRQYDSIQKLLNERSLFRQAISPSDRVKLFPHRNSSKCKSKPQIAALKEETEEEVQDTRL

Row | Compound | EC50 [1] [nM] | EC50 [2] [nM] | Maximum % activity (with co-corrector) [3] | Emax (CSE-HRP, without co-corrector) [%] | Emax [4] [%] | EC50 [5] [nM] | Maximum % activity (with co-corrector) [6] | EC50 [7] [nM] | Maximum % activity (with co-corrector) (with co-corrector (2 μM)) | Emax (without co-corrector) [%]
1 | COc1ccc(C)cc1CN[C@@H]1[C@@H](C(C)(C)C)[C@H](C(=O)O)N(C(=O)OC(C)C)[C@@H]1c1ccccc1 (racemic) [II-40] | 1000 to 10000 | 1000 to 10000 | +++ (≥350) | 100 to 200 | – | – | – | – | – | –
2 | CC(C)(C)[C@@H]1[C@@H](NCc2cccc(OC3CCOCC3)n2)[C@@H](c2ccccc2)N(C(=O)C2CCCCC2)[C@H]1C(=O)O (racemic) [III-10] | – | – | – | – | < 100 | > 10000 | ++ (≥150 and <350) | 1000 to 10000 | – | –
3 | COc1nc(C(C)(C)C)ccc1CN[C@H]1[C@H](C(C)(C)C)[C@@H](C(=O)O)N(C(=O)[C@H]2CCCCO2)[C@H]1c1ccccc1 [Example 39, (2S,3S,4S,5S)-3-tert-butyl-4-{[(6-tert-butyl-2-methoxypyridin-3-yl)methyl]amino}-1-[(2R)-oxane-2-carbonyl]-5-phenylpyrrolidine-2-carboxylic acid] | – | – | – | – | – | 1000 to 10000 | – | 1000 to 10000 | +++ (≥350) | 100 to 200
4 | Cc1cc(C(F)(F)F)cc(N[C@@H]2[C@@H](C(C)(C)C)[C@H](C(=O)NS(=O)(=O)C3CC3)N(C(=O)C3CCCCC3)[C@@H]2c2ccccc2)n1 (racemic) [III-52] | – | – | – | – | < 100 | > 10000 | ++ (≥150 and <350) | < 1000 | – | –
5 | COc1ccc(C(C)(C)C)cc1CN[C@H]1[C@H](C(C)(C)C)[C@@H](C(=O)O)N(C(=O)C2(c3ccccc3)CC2)[C@H]1c1cccnc1OC [Example I-248] | – | – | – | – | – | 1000 to 10000 | – | 1000 to 10000 | +++ (≥350) | 100 to 200
6 | COc1ccc(C(F)(F)F)cc1CN[C@H]1[C@H](C(C)(C)C)[C@@H](C(=O)O)N(C(=O)C2OC[C@@H]3CCC[C@H]23)[C@H]1c1ccccc1 (relative stereo) [Example I-108] | – | – | – | – | – | 1000 to 10000 | – | 1000 to 10000 | +++ (≥350) | 100 to 200
7 | Cc1cc(C(F)(F)F)cc(N[C@H]2[C@@H](c3ccccc3)N(C(=O)C3CCCCC3)[C@@H](C(=O)O)C23CC3)n1 (racemic) [Example I-17] | – | – | – | – | – | 1000 to 10000 | – | 1000 to 10000 | ++ (≥150 and <350) | < 100
8 | CO[C@@H]1CCC[C@@H](C(=O)N2[C@H](c3ccccc3)[C@H](Nc3cc(C(F)(F)F)cc(C)n3)[C@@H](C(C)(C)C)[C@@H]2C(=O)O)C1 (racemic) [Example I-31] | – | – | – | – | – | 1000 to 10000 | – | 1000 to 10000 | +++ (≥350) | < 100
9 | COc1ccc(C(C)(C)C)cc1CN[C@H]1[C@H](C(C)(C)C)[C@@H](C(=O)O)N(C(=O)c2cnn(-c3ccccc3C)c2C)[C@H]1c1ccccc1 [II-228] | < 1000 | < 1000 | +++ (≥350) | > 200 | – | – | – | – | – | –

Results, then the compound that gave them:

Row | EC50 [1] [nM] | EC50 [2] [nM] | Maximum % activity (with co-corrector) [3] | Emax (CSE-HRP, without co-corrector) [%] | Emax [4] [%] | EC50 [5] [nM] | Maximum % activity (with co-corrector) [6] | EC50 [7] [nM] | Maximum % activity (with co-corrector) (with co-corrector (2 μM)) | Emax (without co-corrector) [%] | Compound
10 | – | – | – | – | 100 to 200 | 1000 to 10000 | +++ (≥350) | 1000 to 10000 | – | – | CC(C)OC(=O)N1[C@H](C(=O)O)[C@@H](C(C)(C)C)[C@H](NCC2CCCN(C(=O)OCc3ccccc3)C2)[C@@H]1c1ccccc1 (stereo partly shown) [II-583]
11 | – | – | – | – | – | 1000 to 10000 | – | 1000 to 10000 | +++ (≥350) | 100 to 200 | COc1ncc(C2CCC2)cc1CN[C@H]1[C@H](C(C)(C)C)[C@@H](C(=O)O)N(C(=O)C2C3CCCC32)[C@H]1c1cccnc1OC (stereo partly shown) [Example I-243]
12 | – | – | – | – | – | 1000 to 10000 | – | 1000 to 10000 | +++ (≥350) | > 200 | COc1ccc(C(C)(C)C)cc1CN[C@H]1[C@H](C(C)(C)C)[C@@H](C(=O)O)N(C(=O)C2CCCCC2C(=O)N2CCC2)[C@H]1c1ccccc1 (stereo partly shown) [Example I-149]
13 | – | – | – | – | – | 1000 to 10000 | – | 1000 to 10000 | +++ (≥350) | > 200 | COc1ccc(C(C)(C)C)cc1CN[C@H]1[C@H](C23CC(C2)C3)[C@@H](C(=O)O)N(C(=O)OC(C)C)[C@H]1c1ccccc1 [Example I-226]
